The target of data set [1] is T1, D(2) dopamine receptor (Homo sapiens, UniProt P14416). The data set is described as follows: Displacement of [3H]raclopride from human dopamine D2L receptor expressed in CHOK1a cell membrane after 180 mins by scintillation counting analysis. The class given is cell membranes. In general terms: In a radioligand displacement assay an active substance lowers the binding of a labelled ligand.

The target of data set [2] is T1, D(2) dopamine receptor. The data set can be described thus: Intrinsic activity at human dopamine D2L receptor expressed in CHOK1a cell membrane assessed as [125I]-cAMP accumulation after 20 mins. The class given is functional, cell-based. Background: cAMP levels reflect the balance of adenylyl cyclase and phosphodiesterase activity.
In data set [3] the target is T2, 5-hydroxytryptamine receptor 2C (Homo sapiens, UniProt P28335).
T2 sequence (P28335 whole entry): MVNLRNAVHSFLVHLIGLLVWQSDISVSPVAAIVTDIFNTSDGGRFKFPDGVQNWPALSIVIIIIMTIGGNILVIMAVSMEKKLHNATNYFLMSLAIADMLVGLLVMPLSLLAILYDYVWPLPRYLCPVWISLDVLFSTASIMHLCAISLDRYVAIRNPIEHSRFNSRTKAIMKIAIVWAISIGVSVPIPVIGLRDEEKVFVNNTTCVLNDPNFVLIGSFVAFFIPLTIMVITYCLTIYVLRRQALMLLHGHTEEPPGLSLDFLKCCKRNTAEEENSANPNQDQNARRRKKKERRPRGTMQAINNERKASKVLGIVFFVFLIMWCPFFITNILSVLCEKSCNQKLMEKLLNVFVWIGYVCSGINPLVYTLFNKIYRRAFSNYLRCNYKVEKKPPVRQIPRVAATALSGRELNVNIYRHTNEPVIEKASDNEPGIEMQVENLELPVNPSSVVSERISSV
The data set is described as follows: Displacement of [3H]mesulergine from human 5-HT2C receptor expressed in human tsA201 cells after 1 hr by scintillation counting analysis. The class given is cell-based.

The target of data set [4] is T3, 5-hydroxytryptamine receptor 6 (Homo sapiens, UniProt P50406). The data set can be described thus: Displacement of [3H]LSD from human 5-HT6 receptor expressed in hamster BHK cells after 60 mins by scintillation counting analysis. The class given is cell-based.
Data set [5] concerns the target T3, 5-hydroxytryptamine receptor 6. The data set is described as follows: Displacement of [3H]LSD from human 5-HT6 receptor expressed in human HeLa cells after 1 hr by scintillation spectroscopic analysis. The class given is cell-based.
A short description of data set [6]: Clearance in human. The class given is ADME, organism-based. Conditions: in vivo.
The target in data set [7] is T2, 5-hydroxytryptamine receptor 2C. The data set is described as follows: Displacement of [3H]5-HT from 5-HT2C receptor (unknown origin) expressed in hamster AV12 cells. The class given is cell-based.
Data set [8] deals with T3, 5-hydroxytryptamine receptor 6. The data set can be described thus: Antagonist activity at human 5-HT6 receptor expressed in CHO cells assessed as reduction in serotonin-induced cAMP accumulation after 30 mins by HTRF assay. The class given is functional, cell-based.
The subject of a further data set is tsA201. The data set can be described thus: Selectivity ratio of Ki for human 5-HT2C receptor expressed in human tsA201 cells to Ki for human 5-HT6 receptor expressed in hamster BHK cells. The class given is cell-based.

Calls of active or inactive are those of the source. The calls are words filed in the database; no cut-off is given here.

T1 sequence (P14416 whole entry): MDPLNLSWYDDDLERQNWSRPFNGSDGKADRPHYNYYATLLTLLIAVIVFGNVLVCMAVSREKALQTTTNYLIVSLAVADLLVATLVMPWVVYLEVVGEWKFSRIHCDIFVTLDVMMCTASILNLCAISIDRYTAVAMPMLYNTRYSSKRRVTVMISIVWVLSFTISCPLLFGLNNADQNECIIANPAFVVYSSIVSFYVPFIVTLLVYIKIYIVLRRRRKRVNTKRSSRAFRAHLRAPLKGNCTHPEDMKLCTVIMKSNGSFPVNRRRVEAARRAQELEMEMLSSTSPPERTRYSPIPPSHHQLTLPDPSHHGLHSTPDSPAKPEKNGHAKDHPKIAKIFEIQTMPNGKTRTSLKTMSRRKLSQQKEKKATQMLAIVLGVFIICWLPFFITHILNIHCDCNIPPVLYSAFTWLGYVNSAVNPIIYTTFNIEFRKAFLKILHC
T3 sequence (P50406 whole entry): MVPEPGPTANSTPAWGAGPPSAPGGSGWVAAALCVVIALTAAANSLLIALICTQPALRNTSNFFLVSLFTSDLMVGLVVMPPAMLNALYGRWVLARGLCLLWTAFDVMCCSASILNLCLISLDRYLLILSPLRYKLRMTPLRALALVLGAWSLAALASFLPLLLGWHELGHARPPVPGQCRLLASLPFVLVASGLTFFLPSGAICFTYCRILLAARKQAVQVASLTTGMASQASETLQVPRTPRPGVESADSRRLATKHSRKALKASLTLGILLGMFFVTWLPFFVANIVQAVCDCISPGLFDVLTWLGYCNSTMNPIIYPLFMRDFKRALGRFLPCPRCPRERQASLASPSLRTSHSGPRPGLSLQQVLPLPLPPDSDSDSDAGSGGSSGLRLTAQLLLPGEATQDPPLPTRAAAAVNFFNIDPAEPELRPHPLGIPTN

`c1ccc(CN2CCN3c4cccc5[nH]cc(c45)CC3C2)cc1` (configuration not stated): the Ki on D(2) dopamine receptor [1] (read-out: Ki) was 130 nM. For the same molecule, on D(2) dopamine receptor [2], the Intrinsic activity turned out to be 51.

For the molecule `Cc1ccc(S(=O)(=O)n2cc3c4c(cccc42)N2CCNCC2C3)cc1` (configuration not stated), the Ki in data set [3] came to 780 nM; in data set [4], 96 nM.

With `CNc1cc(NS(=O)(=O)c2ccc(N)cc2)cc(NC)n1`, the Ki in data set [5] (read-out: pKi (converted)) is 12.3 nM.

Regarding `O=S(=O)(c1cccc(Cl)c1)n1cc2c3c(cccc31)N1CCNCC1C2` (configuration not stated), the Ki in data set [3] amounted to 340 nM; in data set [4], 47 nM.

For `CCCN1CCN2c3cccc4[nH]cc(c34)CC2C1` (configuration not stated), at D(2) dopamine receptor [1] (read-out: Ki), the Ki came out at 570 nM.

Take `CCCCN1CCN2c3cccc4[nH]cc(c34)CC2C1` (configuration not stated): the Ki at D(2) dopamine receptor [1] (read-out: Ki) stood at 110 nM.

Regarding `CC(C)CCN1CCN2c3cccc4[nH]cc(c34)CC2C1` (configuration not stated), the Ki at D(2) dopamine receptor [1] (read-out: Ki) stood at 24 nM. Moreover, the Intrinsic activity on D(2) dopamine receptor [2] was found to be 96.

Regarding `COc1ccccc1S(=O)(=O)n1cc2c3c(cccc31)N1CCNCC1C2` (configuration not stated), the Ki is 870 nM in data set [3] and 26 nM in data set [4].

Regarding `O=S(=O)(c1ccc(F)cc1)n1cc2c3c(cccc31)N1CCNCC1C2` (configuration not stated), the results for the Ki in [3] and in data set [4] were 1100 nM and 29 nM, respectively.

Take `c1ccc(-c2cccc(CN3CCN4c5cccc6[nH]cc(c56)CC4C3)c2)cc1` (configuration not stated): the Ki on D(2) dopamine receptor [1] (read-out: Ki) was 0.65 nM; on D(2) dopamine receptor [1] (read-out: pKi (converted)), 0.229 nM. Further, the Intrinsic activity on D(2) dopamine receptor [2] turned out to be 35. Moreover, the clearance (as a rule, the volume of plasma or blood freed of the substance per unit of time) in data set [6] was 65 mL/min/kg.

As to `CC(C)CN1CCN2c3cccc4[nH]cc(c34)CC2C1` (configuration not stated), the Ki on D(2) dopamine receptor [1] (read-out: Ki) came to 310 nM.

As to `Fc1ccc2c(CCNCc3cccc(OCC(F)(F)C(F)F)c3)c[nH]c2c1` [IDALOPIRDINE], the Ki in data set [7] was 250 nM.

Take `Cc1cccc(S(=O)(=O)n2cc3c4c(cccc42)N2CCNCC2C3)c1` (configuration not stated): the Ki was determined as 460 nM in data set [3] and 24 nM in data set [4].

Regarding `O=S(=O)(c1ccccc1)c1cnc2c(N3CCNCC3)cccc2c1`, the result in data set [8] was Active.

Regarding `O=S(=O)(c1ccccc1)n1cc2c3c(cccc31)N1CCNCC1C2` (configuration not stated), the figures for the Ki in data set [3] and in data set [4] were 280 nM and 9 nM, respectively.

`O=S(=O)(c1ccccc1Cl)n1cc2c3c(cccc31)N1CCNCC1C2` (configuration not stated): in [3], the Ki stood at 460 nM.

As for `c1ccc(-c2ccc(CN3CCN4c5cccc6[nH]cc(c56)CC4C3)cc2)cc1` (configuration not stated), the Ki at D(2) dopamine receptor [1] (read-out: Ki) was found to be 140 nM.

With `CCN1CCN2c3cccc4[nH]cc(c34)CC2C1` (configuration not stated), on D(2) dopamine receptor [1] (read-out: Ki), the Ki was 140 nM.

In the case of `c1ccc(-c2ccccc2CN2CCN3c4cccc5[nH]cc(c45)CC3C2)cc1` (configuration not stated), the Ki on D(2) dopamine receptor [1] (read-out: Ki) is 450 nM; at D(2) dopamine receptor [1] (read-out: pKi (converted)), 200 nM.

Take `c1cc2c3c(c[nH]c3c1)CC1CN(CC3CCCCC3)CCN21` (configuration not stated): the Ki at D(2) dopamine receptor [1] (read-out: Ki) was found to be 54 nM. Besides, the Intrinsic activity on D(2) dopamine receptor [2] amounted to 95.

`CCCCCN1CCN2c3cccc4[nH]cc(c34)CC2C1` (configuration not stated): the Ki on D(2) dopamine receptor [1] (read-out: Ki) was determined as 98 nM.

Take `Cc1ccccc1S(=O)(=O)n1cc2c3c(cccc31)N1CCNCC1C2` (configuration not stated): the Ki in data set [3] turned out to be 470 nM; in data set [4], 21 nM.

For the molecule `O=S(=O)(c1ccc(Cl)cc1)n1cc2c3c(cccc31)N1CCNCC1C2` (configuration not stated), the Ki in [3] was 1200 nM; in [4] it was 184 nM.

`COc1ccc(NS(=O)(=O)c2sc3ccc(Cl)cc3c2C)cc1N1CCNCC1` displayed a Ki in data set [7] of 770 nM.

As for `COc1cccc(S(=O)(=O)n2cc3c4c(cccc42)N2CCNCC2C3)c1` (configuration not stated), the results for the Ki in [3] and in data set [4] were 370 nM and 24 nM, respectively.

In [3], `O=S(=O)(c1ccccc1F)n1cc2c3c(cccc31)N1CCNCC1C2` (configuration not stated) had a Ki of 350 nM.

Take `c1cc2c3c(c[nH]c3c1)CC1CNCCN21` (configuration not stated): the Ki on D(2) dopamine receptor [1] (read-out: Ki) turned out to be 2100 nM.

Consider `CN1CCN2c3cccc4[nH]cc(c34)CC2C1` (configuration not stated), for which the Ki on D(2) dopamine receptor [1] (read-out: Ki) turned out to be 660 nM.

For `CN1C[C@@H](NS(=O)(=O)N(C)C)C[C@@H]2c3cccc4c3c(cn4C)C[C@H]21` [MESULERGINE], in data set [5] (read-out: Ki), the Ki came to 776 nM.

Turning to `COc1ccc(S(=O)(=O)n2cc3c4c(cccc42)N2CCNCC2C3)cc1` (configuration not stated), the Ki in [3] came to 2900 nM; in data set [4], 168 nM.

As for `O=S(=O)(c1cccc(F)c1)n1cc2c3c(cccc31)N1CCNCC1C2` (configuration not stated), the Ki in data set [3] came to 240 nM; in data set [4], 0.75 nM. Besides, the outcome in data set [8] was Active. For the same molecule, in the data set on tsA201, the Ratio Ki was 250. For the same molecule, in [6], the clearance was 13.3 mL/min/kg.

The values are drawn from ChEMBL document CHEMBL3286112, “Novel aza-analogous ergoline derived scaffolds as potent serotonin 5-HT₆ and dopamine D₂ receptor ligands” (J Med Chem, 2014).
